Measured values published in US9914735B2, “Heteroaryl Syk inhibitors” (Boehringer Ingelheim International GmbH, priority 2014, dated 2018).
Like-named read-outs stand apart in the source and are kept apart here.

Tests used:
Format in all cases: biochemical
[1] = biological target: Recombinant human Syk (amino acids 342-635), GST-Syk kinase fusion protein (Homo sapiens (Human), UniProt P43405); assay: Syk kinase test (Kinase Glo luminescence)
Method: (§1) The output file of the reader is a csv file that contains the well number and measured relative light units (RLU). For data evaluation and calculation, the measurement of the negative control was set as 100% ctrl and the measurement of the positive control was set as 0% ctrl. Based on this values the % value for the measurement of each substance concentration was calculated using an Assay Explorer software (Accelrys). Normally, the % ctrl values calculated are between 0% and 100% values but may also occur outside these limits in individual cases based on variability or compound characteristics. The IC50 values were calculated from the % ctrl values using Assay Explorer software. Calculation:[y=(a−d)/(1+(x/c)^b)+d] a=low value, d=high value; x=conc M; c=IC50 M; b=hill; y=% ctrl.

[2] = biological target: Recombinant human Aurora B (amino acids 1-344) (Homo sapiens (Human), UniProt Q96GD4); assay: Aurora B kinase test (ADP Glo luminescence)
Recombinant human Aurora B (amino acids 1-344), sequence (Q96GD4 whole entry, the tested form may be a part): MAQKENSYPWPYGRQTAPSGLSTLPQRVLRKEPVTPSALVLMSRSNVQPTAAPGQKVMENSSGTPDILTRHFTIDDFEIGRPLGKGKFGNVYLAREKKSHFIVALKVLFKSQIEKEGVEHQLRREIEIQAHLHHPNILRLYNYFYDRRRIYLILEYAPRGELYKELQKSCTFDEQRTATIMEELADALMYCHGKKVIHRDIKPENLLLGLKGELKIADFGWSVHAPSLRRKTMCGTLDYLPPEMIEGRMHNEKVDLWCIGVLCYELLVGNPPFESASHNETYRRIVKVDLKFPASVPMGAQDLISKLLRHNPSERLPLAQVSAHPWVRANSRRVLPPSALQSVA
Method: The activity of the Aurora B kinase protein was determined using the ADP Glo® Luminescence Kinase test (Promega; V9103X).
Serial Dilution is done in 1:10 steps in 100% DMSO.
Then 20 μl Kinase detection mix (Detection Buffer #V913B Promega; Kinase Detection Substrate #V914B Promega) were added and incubated for 40 minutes at room temperature.
as §1, with “measured RLU.” for “measured relative light units (RLU).”, “as 0%” for “as 100%”, “as 100%” for “as 0%”, “software. Calculation: [y=(a−d)/(1+(x/c)^b)+d],” for “software. Calculation:[y=(a−d)/(1+(x/c)^b)+d]”

FLT3 = FLT3 (Homo sapiens (Human), UniProt P36888); assay: FLT3 kinase test (Z'-LYTE)
FLT3, sequence (P36888 27-993): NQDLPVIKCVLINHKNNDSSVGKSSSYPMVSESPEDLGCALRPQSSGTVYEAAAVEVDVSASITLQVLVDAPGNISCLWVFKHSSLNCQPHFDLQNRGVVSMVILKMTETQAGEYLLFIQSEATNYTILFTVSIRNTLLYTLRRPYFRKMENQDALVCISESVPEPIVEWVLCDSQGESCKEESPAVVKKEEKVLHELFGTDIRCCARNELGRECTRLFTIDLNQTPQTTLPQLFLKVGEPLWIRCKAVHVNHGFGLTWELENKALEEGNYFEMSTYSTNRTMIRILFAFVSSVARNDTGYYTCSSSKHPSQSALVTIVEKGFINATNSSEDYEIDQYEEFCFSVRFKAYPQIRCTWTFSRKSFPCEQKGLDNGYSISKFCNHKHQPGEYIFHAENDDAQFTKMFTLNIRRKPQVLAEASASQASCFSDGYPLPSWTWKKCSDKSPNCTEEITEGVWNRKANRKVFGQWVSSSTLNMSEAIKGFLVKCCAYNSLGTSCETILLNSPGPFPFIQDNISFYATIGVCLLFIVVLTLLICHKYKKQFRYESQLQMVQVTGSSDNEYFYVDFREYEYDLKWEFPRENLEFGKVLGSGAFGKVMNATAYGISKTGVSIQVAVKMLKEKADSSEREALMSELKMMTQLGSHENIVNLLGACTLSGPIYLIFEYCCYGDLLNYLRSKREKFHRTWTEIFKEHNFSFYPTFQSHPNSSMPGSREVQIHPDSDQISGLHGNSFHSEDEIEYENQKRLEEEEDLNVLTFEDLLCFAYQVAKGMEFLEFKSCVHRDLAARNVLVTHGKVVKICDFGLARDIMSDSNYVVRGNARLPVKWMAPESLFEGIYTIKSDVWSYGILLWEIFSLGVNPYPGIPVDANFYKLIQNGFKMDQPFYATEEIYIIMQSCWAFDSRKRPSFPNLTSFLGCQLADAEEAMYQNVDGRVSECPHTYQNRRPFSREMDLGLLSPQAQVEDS
Method: The activity of FLT3 is measured using the Z′-LYTETM assay technology from Invitrogen (#PV3191)
The reaction is started by addition of 2.5 μl of the 4×ATP solution.
Positive controls are reaction mixtures containing no test compound; negative controls (blanks) are reaction mixtures containing no kinase. As a further control, the phosphopeptide solution is added to wells without kinase (=100% phosphorylation control).
The reaction is performed for 1 h at room temperature before 5 μl of the development solution is added. After a further incubation for 1 h at room temperature 5 μl of the stop reagent is added.
The output text file is evaluated in an “MS-Excel—VB-Makro” and “GraphPadPrism” (Version 5) (GraphPad Software Inc.) is used to calculate the results. Data for the inhibition of FLT3 are reported in M. data for the inhibition of the protease are reported in % CTL.

[3] = Table 1, read-out: SYK-inhibition IC50-value
[4] = Table 1, read-out: AURB-inhibition IC50-value
[5] = Table 1, read-out: FLT3-inhibition IC50-value

| Structure (SMILES) | IC50 ([1]; read-out: IC50 in μM (SYK-Inhibition)) | IC50 ([2]; read-out: IC50 in μM (AURB-Inhibition)) | IC50 (FLT3; read-out: IC50 in μM (FLT3-Inhibition)) | IC50 [1, 3] | IC50 [2, 4] | IC50 (FLT3; [5]) | IC50 ([2]; read-out: AURB-inhibition IC50-value) |
| --- | --- | --- | --- | --- | --- | --- | --- |
| C[C@@H](Oc1cc(-c2ccc3c(c2)ncn3C)cc2ncccc12)[C@H]1CNC(=O)C1 [94 of WO 2013/014060] | 0.001 µM | 0.298 µM | 0.267 µM |  |  |  |  |
| C[C@@H](Oc1nc(-c2cnn(C3CCCCO3)c2)cc2nn(C)cc12)[C@H]1CNC(=O)C1 (some centres unmarked) [Example 3] |  |  |  | 0.0466 µM | > 50 µM | 17.4 µM |  |
| C[C@@H](Oc1nc(-c2cnn(C3CCCCC3)c2)cc2nn(C)cc12)[C@H]1CNC(=O)C1 [Example 7, (R)-4-((R)-1-(6-(1-cyclohexyl-1H-pyrazol-4-yl)-2-methyl-2H-pyrazolo[4,3-c]pyridin-4-yloxy)ethyl)pyrrolidin-2-one] |  |  |  | 0.0147 µM | 37.3 µM | 5.77 µM |  |
| C[C@@H](Oc1nc(-c2cnn(C3CCNCC3)c2)cc2nn(C)cc12)[C@H]1CNC(=O)C1 [Example 9, (4R)-4-[(1R)-1-[2-Methyl-6-[1-(4-piperidyl)pyrazol-4-yl]pyrazolo[4,3-c]pyridin-4-yl]oxyethyl]pyrrolidin-2-one] |  |  |  | 0.0424 µM | > 50 µM | 3.67 µM |  |
| C[C@@H](Oc1nc(-c2cnn(C3CCC(F)(F)CC3)c2)cc2nn(C)cc12)[C@H]1CNC(=O)C1 [Example 10, (4R)-4-[(1R)-1-[6-[1-(4,4-Difluorocyclohexyl)pyrazol-4-yl]-2-methyl-pyrazolo[4,3-c]pyridin-4-yl]oxyethyl]pyrrolidin-2-one] |  |  |  | 0.0218 µM | 36 µM | 8.03 µM |  |
| C[C@@H](Oc1nc(-c2cc3nn(C)cc3c(O[C@H](C)[C@H]3CNC(=O)C3)n2)cc2nn(C)cc12)[C@@H]1CNC(=O)C1 [Example 11, (4S)-4-[(1R)-1-[2-methyl-6-[2-methyl-4-[(1R)-1-[(3R)-5-oxopyrrolidin-3-yl]ethoxy]-pyrazolo[4,3-c]pyridin-6-yl]pyrazolo[4,3-c]pyridin-4-yl]oxyethyl]pyrrolidin-2-one] |  |  |  | 0.935 µM | > 50 µM | 37.4 µM |  |
| C[C@@H](Oc1nc(-c2cnn([C@H]3CC[C@H](N4CCN(C)C(=O)C4)CC3)c2)cc2nn(C)cc12)[C@H]1CNC(=O)C1 [Example 12, 1-methyl-4-[4-[4-[2-methyl-4-[(1R)-1-[(3R)-5-oxopyrrolidin-3-yl]ethoxy]pyrazolo[4,3-c]pyridin-6-yl]pyrazol-1-yl]-cyclohexyl]piperazin-2-one] |  |  |  | 0.0123 µM | 34.1 µM | 8.33 µM |  |
| C[C@@H](Oc1nc(-c2cc3nn(C)cc3c(=O)[nH]2)cc2nn(C)cc12)[C@H]1CNC(=O)C1 [Example 13, 2-Methyl-6-[2-methyl-4-[(1R)-1-[(3R)-5-oxopyrrolidin-3-yl]ethoxy]pyrazolo[4,3-c]pyridin-6-yl]-5H-pyrazolo[4,3-c]pyridin-4-one] |  |  |  | 0.831 µM | > 50 µM | > 50 µM |  |
| C[C@@H](Oc1cc(-c2ccn(C)n2)cc2nn(C)cc12)[C@H]1CNC(=O)C1 [Example 14, (4R)-4-[(1R)-1-[2-methyl-6-(1-methylpyrazol-3-yl)indazol-4-yl]oxyethyl]-pyrrolidin-2-one] |  |  |  | 0.0421 µM |  | 40.8 µM |  |
| C[C@@H](Oc1cc(-c2cnn(CCC(F)(F)F)c2)cc2nn(C)cc12)[C@H]1CNC(=O)C1 [Example 15, (4R)-4-[(1R)-1-[2-Methyl-6-[1-(3,3,3-trifluoropropyl)pyrazol-4-yl]indazol-4-yl]oxyethyl]pyrrolidin-2-one] |  |  |  | 0.0187 µM | 33.4 µM | 10.1 µM |  |
| C[C@@H](Oc1cc(-c2n[nH]c3ccc(C#N)cc23)cc2nn(C)cc12)[C@H]1CNC(=O)C1 [Example 16, 3-[2-methyl-4-[(1R)-1-[(3R)-5-oxopyrrolidin-3-yl]-ethoxy]indazol-6-yl]-1H-indazole-5-carbonitrile] |  |  |  | 0.0065 µM | > 50 µM | 10.6 µM |  |
| Cc1nccn1Cc1ccc(-c2cc3nn(C)cc3c(O[C@H](C)[C@H]3CNC(=O)C3)n2)cc1 [Example 17] |  |  |  | 0.0316 µM | > 50 µM | 1.61 µM |  |
| C[C@@H](Oc1cc(-c2ccc(N3CCCS3(=O)=O)cc2)cc2nn(C)cc12)[C@H]1CNC(=O)C1 [Example 33] |  |  |  | 0.0245 µM | > 50 µM | 3.88 µM |  |
| C[C@@H](Oc1cc(-c2cnn(C(F)F)c2)cc2nn(C)cc12)[C@H]1CNC(=O)C1 [Example 40, (4R)-4-[(1R)-1-[6-[1-(difluoromethyl)pyrazol-4-yl]-2-methyl-indazol-4-yl]oxyethyl]pyrrolidin-2-one] |  |  |  | 0.0343 µM | 31.4 µM | 8.95 µM |  |
| C[C@@H](Oc1cc(-c2cnc3ccc(C#N)cn23)cc2nn(C)cc12)[C@H]1CNC(=O)C1 [Example 43, 3-[2-methyl-4-[(1R)-1-[(3R)-5-oxopyrrolidin-3-yl]ethoxy]indazol-6-yl]imidazo[1,2-a]pyridine-6-carbonitrile] |  |  |  | 0.0649 µM | > 50 µM | 15.1 µM |  |
| C[C@@H](Oc1cc(-c2cnn(C3CCOCC3)c2)cc2nn(C)cc12)[C@H]1CNC(=O)C1 [Example 47, (4R)-4-[(1R)-1-[2-methyl-6-(1-tetrahydropyran-4-ylpyrazol-4-yl)indazol-4-yl]oxyethyl]pyrrolidin-2-one] |  |  |  | 0.0067 µM | 26 µM | 4.77 µM |  |
| C[C@@H](Oc1cc(-c2cc3cccc(Cl)c3[nH]2)cc2nn(C)cc12)[C@H]1CNC(=O)C1 [Example 48, (4R)-4-[(1R)-1-[6-(7-chloro-1H-indol-2-yl)-2-methyl-indazol-4-yl]oxyethyl]-pyrrolidin-2-one] |  |  |  | 0.0556 µM | > 50 µM | 16.9 µM |  |
| C[C@@H](Oc1nc(-c2ccc(C3CC3)nc2)cc2nn(C)cc12)[C@H]1CNC(=O)C1 [Example 50, (4R)-4-[(1R)-1-[6-(6-Cyclopropyl-3-pyridyl)-2-methyl-pyrazolo[4,3-c]pyridine-4-yl]oxyethyl]pyrrolidin-2-one] |  |  |  | 0.0554 µM | 48 µM | 9.52 µM |  |
| COc1ccc2[nH]cc(-c3cc4nn(C)cc4c(O[C@H](C)[C@H]4CNC(=O)C4)n3)c2c1 [Example 53, (4R)-4-[(1R)-1-[6-(5-methoxy-1H-indol-3-yl)-2-methyl-pyrazolo[4,3-c]pyridin-4-yl]oxyethyl]pyrrolidin-2-one] |  |  |  |  | > 50 µM | 34.1 µM |  |
| Cc1ccc(-c2cc3nn(C)cc3c(O[C@H](C)[C@H]3CNC(=O)C3)n2)s1 [Example 54, (4R)-4-[(1R)-1-[2-methyl-6-(5-methyl-2-thienyl)pyrazolo-[4,3-c]pyridin-4-yl]oxyethyl]-pyrrolidin-2-one] |  |  |  | 0.0892 µM | > 50 µM | 16 µM |  |
| C[C@@H](Oc1nc(-c2ccc3c(c2)CCN(C)CC3)cc2nn(C)cc12)[C@H]1CNC(=O)C1 [Example 55, (4R)-4-[(1R)-1-[2-methyl-6-(3-methyl-1,2,4,5-tetrahydro-3-benzazepin-7-yl)pyrazolo-[4,3-c]pyridin-4-yl]oxyethyl]-pyrrolidin-2-one] |  |  |  | 0.0436 µM | > 50 µM | 3.07 µM |  |
| COCCn1cc(-c2cc3nn(C)cc3c(O[C@H](C)[C@H]3CNC(=O)C3)n2)cn1 [Example 57, (4R)-4-[(1R)-1-[6-[1-(2-methoxyethyl)pyrazol-4-yl]-2-methyl-pyrazolo[4,3-c]pyridin-4-yl]oxyethyl]pyrrolidin-2-one] |  |  |  | 0.0901 µM | > 50 µM | 32 µM |  |
| COc1cc(-c2cc3nn(C)cc3c(O[C@H](C)[C@H]3CNC(=O)C3)n2)ccc1OC1CCOCC1 [Example 73, (4R)-4-[(1R)-1-[6-(3-Methoxy-4-tetrahydropyran-4-yloxy-phenyl)-2-methyl-pyrazolo[4,3-c]pyridin-4-yl]oxyethyl]pyrrolidin-2-one] |  |  |  |  |  | 4.17 µM | 49.1 µM |
| C[C@@H](Oc1nc(-c2cnn(C3CCN(C)CC3)c2)cc2nn(C)cc12)[C@H]1CNC(=O)C1 [Example 82, (4R)-4-[(1R)-1-[2-Methyl-6-[1-(1-methyl-4-piperidyl)pyrazol-4-yl]pyrazolo [4,3-c]pyridin-4-yl]oxyethyl]pyrrolidin-2-one] |  |  |  |  | > 50 µM | 7.78 µM |  |
